# Assay results: patent publication US20230012368A1 (Hoffmann-La Roche Inc., priority 2018, published 2023)
# Structures can show the parent of a compound that is named as a salt. Where two headings read alike, the source gives them in different places.
# System: Acinetobacter baumannii ATCC 17978
# Assay: Antimicrobial susceptibility testing: 90% growth inhibitory concentration (IC90) determination
# Format: cell-based
# Conditions: 90% growth inhibitory concentration, Acinetobacter baumannii ATCC17978, Iso-Sensitest broth, OD 600 nm over 16h, read-out: ATCC17978 IC90
# Outline: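 Compounds serially twofold diluted (e.g. 50 to 0.097 μM final) in Iso-Sensitest broth, inoculated at ~5×10^(5) CFU/ml, incubated at 35±2° C. OD600 read every 20 minutes over 16h. IC90 taken as concentration inhibiting 90% of growth during logarithmic phase.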
# [1] = Acinetobacter baumannii, ATCC17978, 16 h
SMILES,IC90 [1] [µM],IC90 [µM]
"COc1ccc(-c2cnc3c(Nc4ccc(C(=O)NCCCCCCCN)c(Cl)c4)nccn23)c(F)c1F [Example 518, N-(7-aminoheptyl)-2-chloro-4-((3-(2,3-difluoro-4-methoxyphenyl)imidazo[1,2-a]pyrazin-8-yl)amino)benzamide hydrochloride]",0.171,
"CCc1cc(Nc2nccn3c(-c4ccc(OCC#CCOCCN)c(F)c4F)cnc23)ccc1C(=O)NCCCN [Example 159, 4-[[3-[4-[4-(2-aminoethoxy)but-2-ynoxy]-2,3-difluoro-phenyl]imidazo[1,2-a]pyrazin-8-yl]amino]-N-(3-aminopropyl)-2-ethyl-benzamide]",0.23,
"CCc1cc(Nc2nccn3c(-c4ccc(OC)c(F)c4F)cnc23)ccc1C(=O)N[C@H](CN)C(=O)OC [Example 310, methyl (2R)-3-amino-2-[[4-[[3-(2,3-difluoro-4-methoxyphenyl)imidazo[1,2-a]pyrazin-8-yl]amino]-2-ethylbenzoyl]amino]propanoate; hydrochloride]",,0.8
"CCc1cc(Nc2nccn3c(-c4ccc(Oc5ccccn5)c(F)c4F)cnc23)ccc1C(=O)NCCNC(=O)[C@H](N)CCNC(=N)N [Example 426, N-[2-[[(2R)-2-amino-4-guanidino-butanoyl]amino]ethyl]-4-[[3-[2,3-difluoro-4-(2-pyridyloxy)phenyl]imidazo [1,2-a]pyrazin-8-yl]amino]-2-ethyl-benzamide; formic acid]",0.82,
"CCc1cc(Nc2nccn3c(-c4ccc(OC)c(F)c4F)cnc23)ccc1C(=O)NCC(O)CNC(=O)CCCN (stereo not shown) [Example 410, N-(3-(4-aminobutanamido)-2-hydroxypropyl)-4-((3-(2,3-difluoro-4-methoxyphenyl)imidazo[1,2-a]pyrazin-8-yl)amino)-2-ethylbenzamide hydrochloride]",0.21,
"COc1ccc(-c2cnc3c(Nc4ccc(C(=O)N[C@@H](C)CN)c(Cl)c4)nccn23)c(F)c1F [Example 505, #N!-[(2#S!)-1-aminopropan-2-yl]-2-chloro-4-[[3-(2,3-difluoro-4-methoxyphenyl)imidazo[1,2-a]pyrazin-8-yl]amino]benzamide;dihydro-chloride]",0.27,
"CCc1cc(Nc2nccn3c(-c4ccc(OC)c(F)c4F)cnc23)ccc1C(=O)N[C@H](C)C(=O)NCCNC [Example 566, 4-[[3-(2,3-difluoro-4-methoxy-phenyl)imidazo[1,2-a]pyrazin-8-yl]amino]-2-ethyl-N-[(1R)-1-methyl-2-[2-(methylamino)ethylamino]-2-oxo-ethyl]benzamide]",0.95,
"CCc1cc(Nc2nccn3c(-c4ccc(Oc5ccccn5)c(F)c4F)cnc23)ccc1C(=O)NCCCCC(=O)N1CCN[C@H](CO)C1 [Example 477, 4-[[3-[2,3-difluoro-4-(2-pyridyloxy)phenyl]imidazo [1,2-a]pyrazin-8-yl]amino]-2-ethyl-N-[5-[(3S)-3-(hydroxymethyl)piperazin-1-yl]-5-oxo-pentyl]benzamide]",0.33,
"CCc1cc(Nc2nccn3c(-c4ccc(OCC#N)c(F)c4F)cnc23)ccc1C(=O)NCCNC(=O)[C@H](N)CCCNC(=N)N [Example 148, N-[2-[[(2R)-2-amino-5-guanidino-pentanoyl]amino]ethyl]-4-[[3-[4-(cyanomethoxy)-2,3-difluoro-phenyl]imidazo[1,2-a]pyrazin-8-yl]amino]-2-ethyl-benzamide formate]",0.1,
"CCc1cc(Nc2nccn3c(-c4ccc(OC(F)F)c(F)c4F)cnc23)ccc1C(=O)NCC1CCN(CC2CNC2)CC1 [Example 547, N-((1-(azetidin-3-ylmethyl)piperidin-4-yl)methyl)-4-((3-(4-(difluoromethoxy)-2,3-difluorophenyl)imidazo[1,2-a]pyrazin-8-yl)amino)-2-ethylbenzamide formate]",0.16,
"C=CCNC(=O)c1ccc(Nc2nccn3c(-c4ccc(OC)c(F)c4F)cnc23)cc1CC [Example 329, 4-[[3-(2,3-difluoro-4-methoxyphenyl)imidazo[1,2-a]pyrazin-8-yl]amino]-2-ethyl-N-prop-2-enylbenzamide]",0.14,
"CCc1cc(Nc2nccn3c(-c4ccc(Oc5ccncn5)c(F)c4F)cnc23)ccc1C(=O)NCCCNC(=O)CCCNCCCN [Example 563, N-[3-[4-(3-aminopropylamino)butanoyl-amino]propyl]-4-[[3-(2,3-difluoro-4-pyrimidin-4-yloxy-phenyl)imidazo[1,2-a]pyrazin-8-yl]amino]-2-ethyl-benzamide; formic acid]",0.19,
"COc1ccc(-c2cnc3c(Nc4ccc(C(=O)NCCCCN)c(C)c4)nccn23)c(F)c1F [Example 513, N-(4-aminobutyl)-4-((3-(2,3-difluoro-4-methoxyphenyl)imidazo[1,2-a]pyrazin-8-yl)amino)-2-methylbenzamide hydrochloride]",0.05,
"N#CCOc1ccc(-c2cnc3c(Nc4ccc(C(=O)NCCc5nnn[nH]5)c(Cl)c4)nccn23)c(F)c1F [Example 104, 2-chloro-4-[[3-[4-(cyanomethoxy)-2,3-difluoro-phenyl]imidazo[1,2-a]pyrazin-8-yl]amino]-N-[2-(1H-tetrazol-5-yl)ethyl]benzamide]",,1.1
"CCc1cc(Nc2nccn3c(-c4ccc(OC)c(F)c4F)cnc23)ccc1C(=O)NC(C)(C)CNC(=O)[C@@H](N)CCCCN [Example 326, N-[1-[[(2S)-2,6-diaminohexanoyl]amino]-2-methylpropan-2-yl]-4-[[3-(2,3-difluoro-4-methoxyphenyl)imidazo[1,2-a]pyrazin-8-yl]amino]-2-ethylbenzamide]",0.19,
"COc1ccc(-c2cnc3c(Nc4ccc5c(c4)CCN(CCO)C5=O)nccn23)c(F)c1F [Example 302, 6-[[3-(2,3-difluoro-4-methoxyphenyl)imidazo[1,2-a]pyrazin-8-yl]amino]-2-(2-hydroxyethyl)-3,4-dihydroisoquinolin-1-one]",0.3,
"COc1ccc(-c2cnc3c(Nc4cc(F)c(C(=O)NCCCN)c(F)c4)nccn23)c(F)c1F [Example 435, N-(3-aminopropyl)-4-((3-(2,3-difluoro-4-methoxyphenyl)imidazo[1,2-a]pyrazin-8-yl)amino)-2,6-difluorobenzamide]",0.73,
"COc1ccc(-c2cnc3c(Nc4cc(C)c(C(=O)NCCN)c(F)c4)nccn23)c(F)c1F [Example 467, N-(2-aminoethyl)-4-((3-(2,3-difluoro-4-methoxyphenyl)imidazo[1,2-a]pyrazin-8-yl)amino)-2-fluoro-6-methylbenzamide]",0.63,

# Second part, the compound after the results:
IC90 [1] [µM],IC90 [µM],SMILES
3.7,,"COc1ccc(-c2cnc3c(Nc4ccc(C(=O)NCCN5CCNCC5)cc4)nccn23)cc1Cl [Example 30, 4-((3-(3-chloro-4-methoxyphenyl)imidazo [1,2-a]pyrazin-8-yl)amino)-N-(2-(piperazin-1-yl)ethyl)benzamide hydrochloride]"
1.5,,"COc1ccc(-c2cnc3c(Nc4ccc(C(=O)N(C)CCN5CCCCC5)c(Cl)c4)nccn23)cc1F [Example 237, 2-chloro-4-[[3-(3-fluoro-4-methoxyphenyl)imidazo[1,2-a]pyrazin-8-yl]amino]-N-methyl-N-(2-piperidin-1-ylethyl)benzamide]"
1.9,,"Cc1cc(Nc2nccn3c(-c4ccc(OC(F)F)cc4)cnc23)ccc1C(=O)N(C)CCN1C[C@@H](C)O[C@@H](C)C1 [Example 256, 4-[[3-[4-(difluoromethoxy)phenyl]im-idazo[1,2-a]pyrazin-8-yl]amino]-N,2-dimethyl-N-[2-[rac-(2R,6S)-2,6-dimethylmorpholin-4-yl]ethyl]benzamide]"
0.09,,"N#CCOc1ccc(-c2cnc3c(Nc4ccc(C(=O)NCC5CCNCC5)c(Cl)c4)nccn23)c(F)c1F [Example 79, 2-chloro-4-[[3-[4-(cyanomethoxy)-2,3-difluoro-phenyl]imidazo[1,2-a]pyrazin-8-yl]amino]-N-(4-piperidylmethyl) benzamide]"
,0.29,"COc1ccc(-c2cnc3c(Nc4ccc(C(=O)N(C)CCCC(=O)N5CCNCC5)c(C)c4)nccn23)cc1F [Example 4, 4-[[3-(3-fluoro-4-methoxy-phenyl)imidazo[1,2-a]pyrazin-8-yl]amino]-N,2-dimethyl-N-(4-oxo-4-piperazin-1-yl-butyl)benzamide]"
2.1,,"COc1ccc(-c2cnc3c(Nc4ccc(C(=O)NCCO)cc4)nccn23)cc1Cl [Example 243, 4-[[3-(3-chloro-4-methoxyphenyl)imidazo[1,2-a]pyrazin-8-yl]amino]-N-(2-hydroxyethyl)benzamide]"
1,,"Cc1cc(Nc2nccn3c(-c4ccc(OC(F)F)cc4)cnc23)ccc1C(=O)N(C)CCCSc1nnnn1C [Example 178, 4-[[3-[4-(difluoromethoxy)phenyl]im-dazo[1,2-a]pyrazin-8-yl]amino]-N,2-dimethyl-N-[3-(1-methyltetrazol-5-yl)sulfanylpropyl]benzamide]"
0.94,,"COc1ccc(-c2cnc3c(Nc4ccc(C(=O)NCCNC(=O)[C@@H]5CCNC[C@@H]5O)c(C)c4)nccn23)c(F)c1F [Example 459, (3R,4R)-N-[2-[[4-[[3-(2,3-difluoro-4-methoxy-phenyl)imidazo[1,2-a]pyrazin-8-yl]amino]-2-methyl-benzoyl]amino]ethyl]-3-hydroxy-piperidine-4-carboxamide; formic acid]"
,0.2,"Cc1cc(Nc2nccn3c(-c4ccc(OC(F)F)cc4)cnc23)ccc1C(=O)N(C)CCC1CCNCC1 [Example 81, 4-((3-(4-(difluoromethoxy)phenyl)imidazo[1,2-a]pyrazin-8-yl)amino)-N,2-dimethyl-N-(2-(piperidin-4-yl)ethyl)benzamide]"
0.27,,"COc1ccc(-c2cnc3c(Nc4ccc(C(=O)NCCCN5CCNCC5=O)c(C)c4)nccn23)c(F)c1F [Example 69, 4-((3-(2,3-difluoro-4-methoxyphenyl)imidazo [1,2-a]pyrazin-8-yl)amino)-2-methyl-N-(3-(2-oxopiperazin-1-yl)propyl)benzamide]"
